Data as given in the Kinase Knowledgebase extract (Sharma et al. 2016).

Tests used:
[1] = target: EGFR (Human), P00533 [T790M/L858R]; conditions: h1975
[2] = target: EGFR (Human), P00533 [Assessment of HCC827 (EGFR Del) Cell Proliferation]
[3] = target: EGFR (human), P00533 [WT]; conditions: a549
[4] = target: EGFR (human), P00533 [WT]; conditions: a431
[5] = target: EGFR (human), P00533 [L858R]
[6] = target: EGFR (human), P00533 [T790M]
[7] = target: EGFR (Human), P00533 [T790M/L858R]

Chain of EGFR (Human), P00533 [T790M/L858R] (P00533 whole entry T790M/L858R, looked up): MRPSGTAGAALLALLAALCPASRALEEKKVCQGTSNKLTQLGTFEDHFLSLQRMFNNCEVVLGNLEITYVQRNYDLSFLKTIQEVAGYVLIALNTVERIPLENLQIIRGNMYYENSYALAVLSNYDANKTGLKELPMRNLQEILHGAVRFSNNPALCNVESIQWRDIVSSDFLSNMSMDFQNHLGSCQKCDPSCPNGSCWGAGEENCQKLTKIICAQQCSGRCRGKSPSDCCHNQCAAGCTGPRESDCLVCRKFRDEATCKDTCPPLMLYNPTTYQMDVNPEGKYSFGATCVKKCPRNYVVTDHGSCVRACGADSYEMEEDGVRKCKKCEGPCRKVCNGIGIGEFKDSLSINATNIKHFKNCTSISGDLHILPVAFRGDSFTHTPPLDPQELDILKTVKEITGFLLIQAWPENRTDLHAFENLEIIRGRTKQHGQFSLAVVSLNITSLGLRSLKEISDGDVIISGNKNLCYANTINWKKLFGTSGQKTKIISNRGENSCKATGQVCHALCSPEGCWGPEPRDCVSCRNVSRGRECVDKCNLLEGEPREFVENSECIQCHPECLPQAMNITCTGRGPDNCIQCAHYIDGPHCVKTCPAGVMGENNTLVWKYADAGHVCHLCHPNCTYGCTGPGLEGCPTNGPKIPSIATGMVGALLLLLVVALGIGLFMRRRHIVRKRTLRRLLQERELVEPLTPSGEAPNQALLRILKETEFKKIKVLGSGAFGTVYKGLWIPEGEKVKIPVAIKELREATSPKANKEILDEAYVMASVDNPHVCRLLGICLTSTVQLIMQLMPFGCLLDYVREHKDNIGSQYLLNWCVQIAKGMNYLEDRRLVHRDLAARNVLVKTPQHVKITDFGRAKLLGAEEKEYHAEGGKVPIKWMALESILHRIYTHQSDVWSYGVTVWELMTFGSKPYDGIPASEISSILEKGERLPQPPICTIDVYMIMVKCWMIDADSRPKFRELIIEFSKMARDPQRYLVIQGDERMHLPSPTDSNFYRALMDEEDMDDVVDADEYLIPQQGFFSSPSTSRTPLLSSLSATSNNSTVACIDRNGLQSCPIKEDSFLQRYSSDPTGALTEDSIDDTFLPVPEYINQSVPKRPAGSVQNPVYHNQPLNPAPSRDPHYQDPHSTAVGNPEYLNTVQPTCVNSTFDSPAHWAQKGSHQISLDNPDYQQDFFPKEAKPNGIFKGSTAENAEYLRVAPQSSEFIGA
Chain of EGFR (Human), P00533 [Assessment of HCC827 (EGFR Del) Cell Proliferation] (P00533 whole entry, looked up, stated change not applied): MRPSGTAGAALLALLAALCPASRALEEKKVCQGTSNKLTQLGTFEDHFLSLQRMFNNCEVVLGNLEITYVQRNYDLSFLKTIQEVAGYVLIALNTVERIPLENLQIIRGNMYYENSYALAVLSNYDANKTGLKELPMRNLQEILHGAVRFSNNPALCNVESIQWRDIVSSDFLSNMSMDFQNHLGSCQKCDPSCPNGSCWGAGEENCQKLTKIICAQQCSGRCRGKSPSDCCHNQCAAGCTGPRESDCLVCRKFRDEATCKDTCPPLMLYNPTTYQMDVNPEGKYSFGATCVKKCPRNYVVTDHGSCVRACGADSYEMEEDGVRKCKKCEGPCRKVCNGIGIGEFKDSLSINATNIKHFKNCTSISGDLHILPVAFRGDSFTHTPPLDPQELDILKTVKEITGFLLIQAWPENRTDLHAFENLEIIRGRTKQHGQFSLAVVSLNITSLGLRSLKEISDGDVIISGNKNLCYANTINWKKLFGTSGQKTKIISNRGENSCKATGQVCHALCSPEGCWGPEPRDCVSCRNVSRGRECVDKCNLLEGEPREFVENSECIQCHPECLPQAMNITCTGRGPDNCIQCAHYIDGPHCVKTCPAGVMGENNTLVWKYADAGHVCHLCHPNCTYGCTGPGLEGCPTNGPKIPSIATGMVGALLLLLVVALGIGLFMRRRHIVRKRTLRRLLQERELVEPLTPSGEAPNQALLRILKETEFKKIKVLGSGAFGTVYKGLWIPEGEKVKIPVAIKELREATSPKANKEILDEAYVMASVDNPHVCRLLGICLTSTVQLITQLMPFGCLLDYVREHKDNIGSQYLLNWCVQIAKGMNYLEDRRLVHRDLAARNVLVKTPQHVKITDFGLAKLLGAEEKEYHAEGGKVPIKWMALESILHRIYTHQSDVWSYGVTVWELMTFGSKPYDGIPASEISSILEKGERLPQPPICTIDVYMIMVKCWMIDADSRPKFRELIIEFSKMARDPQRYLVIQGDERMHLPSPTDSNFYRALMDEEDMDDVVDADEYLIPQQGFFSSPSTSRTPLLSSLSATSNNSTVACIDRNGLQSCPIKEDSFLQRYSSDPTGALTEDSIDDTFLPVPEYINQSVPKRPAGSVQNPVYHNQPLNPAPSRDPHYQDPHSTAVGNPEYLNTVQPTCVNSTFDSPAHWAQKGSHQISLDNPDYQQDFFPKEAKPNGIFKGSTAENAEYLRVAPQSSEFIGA
Chain of EGFR (human), P00533 [WT] (P00533 whole entry, looked up): as the sequence (P00533 whole entry, looked up, stated change not applied) above
Chain of EGFR (human), P00533 [T790M] (P00533 whole entry T790M, looked up): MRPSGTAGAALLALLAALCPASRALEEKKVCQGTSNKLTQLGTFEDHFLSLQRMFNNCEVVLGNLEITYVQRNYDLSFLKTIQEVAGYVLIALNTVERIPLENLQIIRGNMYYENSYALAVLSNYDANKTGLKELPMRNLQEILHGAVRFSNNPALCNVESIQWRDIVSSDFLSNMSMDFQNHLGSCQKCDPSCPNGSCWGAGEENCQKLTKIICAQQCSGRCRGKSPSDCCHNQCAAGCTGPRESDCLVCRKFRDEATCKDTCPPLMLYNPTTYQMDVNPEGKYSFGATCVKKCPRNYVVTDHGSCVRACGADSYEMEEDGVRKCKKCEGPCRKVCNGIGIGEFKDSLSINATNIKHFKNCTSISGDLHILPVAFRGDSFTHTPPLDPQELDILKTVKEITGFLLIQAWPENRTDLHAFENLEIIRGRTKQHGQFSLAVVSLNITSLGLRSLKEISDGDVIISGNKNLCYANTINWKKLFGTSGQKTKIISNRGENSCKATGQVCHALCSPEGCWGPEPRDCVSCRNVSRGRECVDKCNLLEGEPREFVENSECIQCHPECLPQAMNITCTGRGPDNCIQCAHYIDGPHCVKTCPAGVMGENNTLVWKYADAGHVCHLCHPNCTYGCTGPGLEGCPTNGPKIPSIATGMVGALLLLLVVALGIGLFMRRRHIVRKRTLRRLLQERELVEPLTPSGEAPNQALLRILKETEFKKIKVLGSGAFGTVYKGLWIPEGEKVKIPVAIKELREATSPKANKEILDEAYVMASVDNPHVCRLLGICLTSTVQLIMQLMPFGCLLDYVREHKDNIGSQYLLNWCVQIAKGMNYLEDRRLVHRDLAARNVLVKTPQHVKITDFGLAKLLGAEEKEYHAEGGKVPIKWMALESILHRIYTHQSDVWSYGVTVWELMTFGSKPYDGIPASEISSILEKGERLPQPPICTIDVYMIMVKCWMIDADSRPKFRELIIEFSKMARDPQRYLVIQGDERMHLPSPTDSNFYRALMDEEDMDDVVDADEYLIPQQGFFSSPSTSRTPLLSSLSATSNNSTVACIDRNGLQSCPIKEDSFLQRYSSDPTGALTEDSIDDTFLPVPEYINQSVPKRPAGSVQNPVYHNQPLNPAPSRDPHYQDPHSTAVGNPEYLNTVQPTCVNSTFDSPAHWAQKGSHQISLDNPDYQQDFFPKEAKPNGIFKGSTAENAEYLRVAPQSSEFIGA

Row | IC50 [1] [nM] | IC50 [2] [nM] | IC50 [3] [nM] | IC50 [4] [nM] | Structure (SMILES) | IC50 [5] [nM] | IC50 [6] [nM] | IC50 [7] [nM]
1 | 90 | 450 |  |  | C=CC(=O)Nc1cc(Nc2ncc(Cl)c(Nc3ccccc3C(=O)C(=O)NC)n2)ccc1OC |  |  | 
2 | 810 | 1630 |  |  | COc1cc(N2CCN(C)CC2)ccc1Nc1ncc(Cl)c(Nc2ccccc2C(=O)C(=O)N(C)C)n1 |  |  | 
3 | 20 | 120 |  |  | C=CC(=O)Nc1cc(Nc2ncc(Cl)c(Nc3ccccc3C(=O)C(=O)N(C)C)n2)ccc1OC |  |  | 
4 | 10 | 70 | 640 |  | C=CC(=O)Nc1cccc(Nc2ncc(Cl)c(Nc3ccccc3C(=O)C(=O)N(C)C)n2)c1 |  |  | 
5 | 650 | 1200 |  |  | C=CC(=O)Nc1cc(Nc2ncc(Cl)c(Nc3ccccc3C(=O)C(=O)NC)n2)c(F)cc1OC |  |  | 
6 | 10 | 20 | 1890 | 10 | COc1cc(Nc2ncc(Cl)c(Nc3ccccc3C(=O)C(=O)N(C)C)n2)ccc1N1CCC(N(C)C)CC1 |  |  | 
7 | 100 | 270 |  |  | C=CC(=O)Nc1cccc(Nc2ncc(Cl)c(Nc3ccccc3C(=O)C(=O)NC)n2)c1 |  |  | 
8 | 1950 | 1940 |  |  | COc1cc(N2CCOCC2)ccc1Nc1ncc(Cl)c(Nc2ccccc2C(=O)C(=O)N(C)C)n1 |  |  | 
9 | 2860 |  |  |  | COc1cc(N2CCC(N(C)C)CC2)ccc1Nc1ncc(Cl)c(Nc2ccccc2C(=O)C(=O)N2CCOCC2)n1 |  |  | 
10 | 980 | 530 | 370 |  | C=CC(=O)Nc1cccc(Nc2ncc(C(F)(F)F)c(Nc3ccccc3C(=O)C(N)=O)n2)c1 |  |  | 
11 | 10 | 30 | 40 | 100 | C=C(CN1CCOCC1)C(=O)Nc1cccc(Nc2ncc(Cl)c(Nc3ccccc3C(=O)C(=O)N(C)C)n2)c1 |  |  | 
12 | 50 | 120 |  |  | C=CC(=O)Nc1cc(Nc2ncc(Cl)c(Nc3ccccc3C(=O)C(=O)N(C)C)n2)c(OC)cc1F |  |  | 
13 | 840 | 940 |  |  | COc1cc(N2CCC(N(C)C)CC2)ccc1Nc1ncc(Cl)c(Nc2ccccc2C(=O)C(=O)NO)n1 |  |  | 
14 | 190 |  |  |  | C=CC(=O)N1CCC(NC(=O)C(=O)c2ccccc2Nc2nc(Nc3ccc(F)c(OC)c3)ncc2Cl)CC1 |  |  | 
15 | 310 | 1200 |  |  | C=CC(=O)Nc1cc(Nc2ncc(Cl)c(Nc3ccccc3C(=O)C(=O)N(C)C)n2)c(F)cc1OC |  |  | 
16 | 640 |  |  |  | CNC(=O)C(=O)c1ccccc1Nc1nc(Nc2ccc(F)c(OC)c2)ncc1Cl |  |  | 
17 | 50 | 30 | 620 | 50 | C=CC(=O)Nc1cc(Nc2ncc(Cl)c(Nc3ccccc3C(=O)C(=O)N(C)C)n2)c(OC)cc1N1CCN(C)CC1 |  |  | 
18 | 10 | 50 |  | 750 | C=CC(=O)Nc1ccc(OC)c(Nc2ncc(Cl)c(Nc3ccccc3C(=O)C(=O)N(CC)CC)n2)c1 |  |  | 
19 | 20 | 20 | 1580 | 110 | C=CC(=O)Nc1ccc(OC)c(Nc2ncc(Cl)c(Nc3ccccc3C(=O)C(=O)N(C)C)n2)c1 |  |  | 
20 | 310 | 1050 | 1370 |  | C/C=C/C(=O)Nc1ccc(OC)c(Nc2ncc(Cl)c(Nc3ccccc3C(=O)C(=O)N(C)C)n2)c1 |  |  | 
21 | 1230 | 2360 |  |  | COc1cc(N2CCN(C)CC2)ccc1Nc1ncc(Cl)c(Nc2ccccc2C(=O)C(=O)N2CCOCC2)n1 |  |  | 
22 | 210 | 540 |  | 50 | COc1cc(N2CCN(C(C)=O)CC2)ccc1Nc1ncc(Cl)c(Nc2ccccc2C(=O)C(=O)N(C)C)n1 |  |  | 
23 | 150 | 870 | 2080 |  | CNC(=O)C(=O)c1ccccc1Nc1nc(Nc2ccc(N3CCN(C)CC3)c(OC)c2)ncc1Cl |  |  | 
24 | 1130 | 900 |  |  | CNC(=O)C(=O)c1ccccc1Nc1nc(Nc2ccc(N3CCC(N(C)C)CC3)cc2OC)ncc1Cl |  |  | 
25 |  | 2330 |  |  | COc1cc(Nc2ncc(Cl)c(Nc3ccccc3C(=O)C(=O)N(C)C)n2)ccc1F |  |  | 
26 | 860 | 1230 |  | 260 | COc1cc(N2CCC(N(C)C)CC2)ccc1Nc1ncc(Cl)c(Nc2ccccc2C(=O)C(=O)N(C)C)n1 |  |  | 
27 | 10 | 20 |  | 210 | C=C(CN(C)CCN(C)C)C(=O)Nc1ccc(OC)c(Nc2ncc(Cl)c(Nc3ccccc3C(=O)C(=O)N(C)C)n2)c1 |  |  | 

Row | Structure (SMILES) | IC50 [1] [nM] | IC50 [2] [nM] | IC50 [3] [nM] | IC50 [4] [nM] | IC50 [5] [nM] | IC50 [6] [nM] | IC50 [7] [nM]
28 | COc1cc(N2CCC(N(C)C)CC2)ccc1Nc1ncc(Cl)c(Nc2ccccc2C(=O)C(N)=O)n1 |  | 2630 |  |  | 44.3 | 7.52 | 4.08
